This note sets out measurements from ChEMBL document CHEMBL3407452, “Linear and branched alkyl-esters and amides of gallic acid and other (mono-, di- and tri-) hydroxy benzoyl derivatives as promising anti-HCV inhibitors” (Eur J Med Chem, 2015).

SMILES strings stand for the structures. Activity calls are given as the source filed them. The calls are words filed in the database; no cut-off is given here.

Series [1] has as its system Vaccinia virus. Description: Antiviral activity against vaccinia virus. To be noted: Orthopoxvirus vaccinia. Format: functional, organism-based.
Series [2] relates to Influenza A virus H3N2. Description: Antiviral activity against influenza A virus H3N2. The format is functional, organism-based.
For series [3], the system named is Coxsackievirus B4. Description: Antiviral activity against human coxsackievirus B4. The format is functional, organism-based.
Series [4] concerns Chikungunya virus. Description: Antiviral activity against chikungunya virus. The format is functional.
Series [5] can be described thus: Selectivity index, ratio of CC50 for human CEM cells to EC50 for HIV1 3B. The format is toxicity, cell-based, CCRF-CEM. Conditions: read-out: Ratio CC50/EC50.
The test system of series [6] is Human respirovirus 3. The experiment in a line: Antiviral activity against human parainfluenza virus 3. Format: functional, organism-based.
For series [7], the system named is Hepatitis C virus. The experiment in a line: Antiviral activity against HCV genotype 1b I389luc-ubi-neo/NS3-3'/5.1 replicons infected in human Huh5-2 HCV subgenomic replicon-containing cells assessed as reduction in virus replication after 3 days by luciferase reporter gene assay. Format: functional, Hepacivirus hominis. Conditions: Hepatitis C virus, genotype 1b, Huh-5-2, 72 h; for EC50: read-out: EC50. (In general: Replicon systems follow genome replication, usually without infectious particles.)

Series [8] relates to Punta Toro virus. The experiment in a line: Antiviral activity against punta toro virus. The format is functional, organism-based.
Series [9] relates to Influenza A virus. The experiment in a line: Antiviral activity against influenza A virus (H1N1). Format: functional, organism-based.
The test system of series [10] is Human immunodeficiency virus 2. Description: Antiviral activity against HIV2 ROD infected in human CEM cells assessed as reduction in virus-induced cytopathicity after 4 to 5 days by microscopy based syncytium cell formation assay. The format is functional, organism-based, ISOLATE ROD, CCRF-CEM. To be noted: Human immunodeficiency virus 2, ISOLATE ROD, CCRF-CEM; read-out: EC50.

Series [11] has as its system Felid alphaherpesvirus 1. Description: Antiviral activity against feline herpesvirus. The format is functional, organism-based.
Series [12] relates to Human immunodeficiency virus 1. Description: Antiviral activity against HIV1 3B infected in human CEM cells assessed as reduction in virus-induced cytopathicity after 4 to 5 days by microscopy based syncytium cell formation assay. Format: functional, organism-based, CCRF-CEM. To be noted: Human immunodeficiency virus 1, 3B, CCRF-CEM; read-out: EC50. For orientation: Damage to the host cells serves as the signal in cytopathic effect assays.

For series [13], the system named is Feline coronavirus. The experiment in a line: Antiviral activity against feline coronavirus. The format is functional, organism-based.
Series [14] is described as follows: Cytotoxicity against human CEM cells assessed as inhibition of cell proliferation. Format: cell-based. Conditions: CEM cells (CCRF-CEM).
Series [15] deals with Respiratory syncytial virus. The experiment in a line: Antiviral activity against RSV. The format is functional, organism-based.
The subject of series [16] is Reovirus sp. Description: Antiviral activity against reovirus. Format: functional, organism-based.
Series [17] has as its system Sindbis virus. The experiment in a line: Antiviral activity against sindbis virus. Format: functional, organism-based.
The nature of series [18]: Cytotoxicity against human Huh5-2 cells after 72 hrs by MTS assay. The format is cell-based, Huh-5-2. For orientation: Formazan colour is commonly taken as a measure of viable cells.
The subject of series [19] is Vesicular stomatitis virus. The experiment in a line: Antiviral activity against vesicular stomatitis virus. Format: functional, organism-based.
A short description of series [20]: Selectivity index, ratio of CC50 for human Huh5-2 cells to EC50 for HCV genotype 1b. Set-up: species or system Huh-5-2.
Series [21] in a line: Cytotoxicity against human HuH6 cells after 72 hrs by MTS assay. Format: cell-based.
Series [22] is described as follows: Cytotoxicity against human Huh-9-13 cells assessed as reduction in cell number at 1 uM to 11 uM after 3 days by nile red staining based confocal microscopy. Conditions: 72 h.
A short description of series [23]: Cytotoxicity against human Huh-9-13 cells assessed as alteration in cell morphology at 33 uM to 100 uM after 3 days by nile red staining based confocal microscopy. Conditions: 72 h.
A short description of series [24]: Cytotoxicity against human Huh-9-13 cells assessed as reduction in cell number at 33 uM to 100 uM after 3 days by nile red staining based confocal microscopy. Conditions: 72 h.
The nature of series [25]: Induction of phospholipidosis in human Huh-9-13 cells assessed as increase in charged lipid content at 1 uM to 11 uM after 3 days by nile red staining based confocal microscopy. To be noted: 72 h. The format is cell-based.
The nature of series [26]: Cytotoxicity against human Huh-9-13 cells assessed as alteration in cell morphology at 1 uM to 11 uM after 3 days by nile red staining based confocal microscopy. To be noted: 72 h.
For series [27], the system named is Hepatitis C virus. The experiment in a line: Antiviral activity against HCV genotype 1b I389luc-ubi-neo/NS3-3'/5.1 replicons infected in human Huh-9-13 HCV subgenomic replicon-containing cells assessed as reduction in virus replication after 3 days by RT-qPCR method. Conditions: 72 h. Format: functional, Hepacivirus hominis.
For series [28], the system named is Hepatitis C virus. The experiment in a line: Antiviral activity against HCV genotype 1b I389luc-ubi-neo/NS3-3'/5.1 replicons infected in human HuH6 HCV subgenomic replicon-containing cells assessed as reduction in virus replication after 3 days by RT-qPCR method. The format is functional, Hepacivirus hominis. To be noted: HuH-6, 72 h.
Series [29] is described as follows: Cytotoxicity against human Huh-9-13 cells after 72 hrs by MTS assay. The format is cell-based.
A short description of series [30]: Induction of phospholipidosis in human Huh-9-13 cells assessed as increase in charged lipid content at 33 uM to 100 uM after 3 days by nile red staining based confocal microscopy. The format is cell-based. To be noted: 72 h.

One may read the EC90 as the concentration at which the effect reaches the 90% level. In general, EC50 refers to the midpoint of the concentration-response curve. The CC50 is the concentration that lowers cell viability or growth by half.

`O=C(NCCN(CCN(CCN(CCNC(=O)c1cc(O)c(O)c(O)c1)C(=O)c1cc(O)c(O)c(O)c1)C(=O)c1cc(O)c(O)c(O)c1)C(=O)c1cc(O)c(O)c(O)c1)c1cc(O)c(O)c(O)c1`: the result in series [1], in [2], in series [3], in [4], in [6] and in series [8] was inactive. Further, the outcome in [9], in series [11], in [13], in [15], in [16] and in series [17] was inactive. Further, the outcome in series [19] was inactive. Moreover, the selectivity ratio in [5] turned out to be 4. Besides, the EC90 in series [7] was more than 50 µM. Also, the EC50 was 34 µM in series [7], more than 10 µM in series [10] and 4.9 µM in series [12]. In series [14], the CC50 was 21 µM. In series [18], this molecule showed a CC50 at 72 h of more than 50 µM.

Take `O=C(OCCCCCCCCCCCCOC(=O)c1cc(O)c(O)c(O)c1)c1cc(O)c(O)c(O)c1`: the result in series [1], in [2], in [3], in [4], in series [6] and in series [8] was inactive. For the same molecule, the outcome in series [9], in [11], in series [13], in series [15], in [16] and in series [17] was inactive. The outcome in series [19] was inactive. For the same molecule, in series [7], the EC90 turned out to be 37 µM. In addition, the 50% effective concentration (EC50) in series [7] was 6.5 µM; in series [10] it was more than 10 µM; in [12] it was 4.6 µM. Further, the “Ratio CC50/EC50” value in [20] was more than 7. Also, the CC50 in series [14] was found to be 4.7 µM. Besides, the CC50 at 72 h in [18] was more than 50 µM.

In the case of `O=C(NCCN(CCNC(=O)c1ccc(O)c(O)c1O)CCNC(=O)c1ccc(O)c(O)c1O)c1ccc(O)c(O)c1O`, the outcome in [1], in series [2], in series [3], in series [4], in series [6] and in [8] was inactive. Besides, the outcome in series [9], in series [11], in series [13], in [15], in series [16] and in series [17] was inactive. Besides, the result in series [19] was inactive. Also, the selectivity ratio in [5] came to 10. In addition, the EC90 in series [7] is more than 5.5 µM. Besides, the results for the EC50 in series [7], in series [10] and in series [12] were more than 5.5 µM, more than 10 µM and 2.5 µM, respectively. Besides, the CC50 in [14] worked out at 28 µM. In series [18], this molecule yielded a CC50 at 72 h of more than 3.7 µM.

As for `O=C(NCCCCN(CCCNC(=O)c1cc(O)c(O)c(O)c1)C(=O)c1cc(O)c(O)c(O)c1)c1cc(O)c(O)c(O)c1`, the result in series [1], in [2], in [3], in series [4], in [6] and in series [8] was inactive. Also, the result in [9], in series [11], in [13], in series [15], in series [16] and in series [17] was inactive. Further, the result in series [19] was inactive. Also, the selectivity ratio in series [5] was 6. Further, the concentration giving a half-maximal response (EC50) in series [12] is 18 µM. Further, the CC50 in series [14] came to 107 µM.

As for `CCCCCCCCCCCCOC(=O)c1cc(O)c(O)c(O)c1` [DODECYL GALLATE], the result in series [1], in series [2], in [3], in series [4], in series [6] and in series [8] was inactive. For the same molecule, the result in series [9], in series [11], in series [13], in series [15], in series [16] and in series [17] was inactive. The outcome in series [19] was inactive. Moreover, the EC90 in series [7] came out at 1.8 µM. Also, the results for the EC50 in series [7], in series [10] and in [12] were 0.4 µM, not below 1 µM and not below 1 µM, respectively. For the same molecule, the “Ratio CC50/EC50” value in series [20] is more than 22. Moreover, in [14], the CC50 is 2.8 µM. The molecule also registered a CC50 at 72 h in [18] of 8.9 µM.

Turning to `O=C(NCCCCN(CCCNC(=O)c1ccc(O)c(O)c1O)C(=O)c1ccc(O)c(O)c1O)c1ccc(O)c(O)c1O`, the result in series [1], in [2], in [3], in series [4], in series [6] and in series [8] was inactive. In addition, the result in series [9], in [11], in series [13], in series [15], in [16] and in series [17] was inactive. Also, the result in [19] was inactive. For the same molecule, the selectivity ratio in series [5] stood at 10. The 90% effect concentration (EC90) in series [7] is more than 50 µM. Also, the EC50 is 34 µM in series [7], more than 10 µM in series [10] and 2.6 µM in series [12]. Also, in series [14], the CC50 worked out at 27 µM. Further, in series [18], the CC50 at 72 h was more than 50 µM.

With `O=C(NCCCCCCCCCCCCNC(=O)c1ccc(O)c(O)c1O)c1ccc(O)c(O)c1O`, the half-maximal cytotoxic concentration (CC50) at 72 h in series [21], in series [29] and in series [18] was more than 100 µM in each case. Besides, the outcome in series [1], in series [2], in series [3], in series [4], in series [6] and in series [8] was inactive. In addition, the result in [9], in [11], in series [13], in series [15], in series [16] and in series [17] was inactive. For the same molecule, the result in series [19] was inactive. The Activity result in series [22] is given as “Non-toxic”; in series [23], “Toxic”; in series [24], “Toxic”; in series [25], “Non-toxic”; in [26], “Non-toxic”; in series [30], “Toxic”. Moreover, the EC90 in series [7] was determined as 6.1 µM. In addition, the 50% effective concentration (EC50) in series [7] is 2.5 µM; in [10], more than 10 µM; in [27], 8.4 µM; in series [28], 33 µM; in series [12] it was more than 10 µM. Further, the “Ratio CC50/EC50” value in series [20] is given as more than 40. For the same molecule, the CC50 in series [14] is 55 µM.

As for `O=C(NCCCCCCCCCCCCNC(=O)c1ccccc1O)c1ccccc1O`, the outcome in series [1], in [2], in series [3], in series [4], in series [6] and in series [8] was inactive. The outcome in [9], in series [11], in series [13], in series [15], in [16] and in series [17] was inactive. Moreover, the outcome in series [19] was inactive. In series [7], the EC90 was more than 6.7 µM. For the same molecule, the concentration giving a half-maximal response (EC50) in series [7] is 4.7 µM; in series [10], more than 250 µM; in series [12], more than 250 µM. Also, the CC50 in series [14] stood at 248 µM. Besides, the CC50 at 72 h in series [18] is more than 6.7 µM.
